The values that follow come from patent US12390457B2, “Stable solutions of immunomodulatory imide compounds for parenteral use” (Starton Therapeutics, Inc., priority 2021, dated 2025).

In general, solubility refers to the concentration that dissolves in the medium under given conditions.

The structures appear in SMILES notation. In brackets after ≈: the same amount, converted by molar mass. Where two headings read alike, the source gives them in different places. Bounds are passed on as bounds.

A short description of data set [1]: LLD solubility in NMP and in aqueous povidone. It is filed as physicochemical. The method, then: These materials conform to a like-dissolves-like solubility. Acetonitrile was also evaluated as a polar aprotic solvent to assess solubility. Organic volatile solvents were assessed, not to include them into formulation approach for parenteral use, but to ascertain the potential solubility parameter requirements to solubilize the API.
Further, the polymer chain of povidone has specific hydrogen bonding affinity which provides enhanced solubility and protection of the primary amine of lenalidomide, which is most susceptible to oxidation.
Dissolution is usually complete within approximately 15 minutes for volumes of approximately 20 mL. It should be appreciated, however, that larger scale production may require longer dissolution times.

Data set [2] is described as follows: Forced degradation of LLD solutions (acidic, basic, oxidative; 40° C.) by HPLC. The data set is classed as physicochemical. The method, then: The primary analytical method for analysis of drug substance in solution is a stability-indicating method, which identifies and quantitates various primary and degradative peaks of the API by HPLC.
In the process of the analytical evaluation, forced degradation of the API in solution is performed to assess how identified chromatography peaks, primary and degradation/impurity are formed.

Data set [3] can be described thus: Compatibility of lenalidomide with sodium metabisulfite antioxidant. The data set is classed as physicochemical.
For data set [4] the following is noted: cited from earlier work.
For data set [5] the following is noted: cited from earlier work. This is another data set of the same source.
Where [6] appears, read: polar aprotic solvent in combination with PVP, in presence of water.

Turning to `Nc1cccc2c1CN(C1CCC(=O)NC1=O)C2=O` (stereo not drawn) [LLD, 3-(4-amino-1-3-dihydro-1-oxo-2H-isoindol-2yl)-2,6-piperidinedione], the “Saturation point of LLD in NMP” value in data set [1] (NMP) was “approximately 30%”. For the same compound, the “Solubility in NMP” value in data set [1] (NMP) is “approximately 30 % by weight”. Moreover, the solubility is around 300000 µg/mL (≈ 1160 mM) in data set [1] (NMP (n-methyl-2-pyrrolidone), organic solvent or mixture, read-out: Solubility in NMP); at most 800 µg/mL in data set [1] (aqueous povidone, aqueous with cosolvent or surfactant or cyclodextrin, with povidone, read-out: Aqueous solubility); around 200 µg/mL (≈ 0.771 mM) in data set [1] (aqueous, without povidone, read-out: Aqueous solubility); “about 0.2 mg/mL” in data set [4] (pH about 6.0 to about 7.0, dependent on storage conditions); “no more than 0.4 mg/mL” in data set [4] (physiologically acceptable pH about 3 to about 8). The “Improvement of aqueous solubility by aqueous povidone solvent” value in data set [1] (aqueous povidone) is listed as 2-3 fold. Further, the LLD degraded in data set [2] (1% PEG400, basic hydrolysis, FIG. 13) is on record as 100%; in data set [2] (1% PG, basic hydrolysis, FIG. 14) it was 100%. Besides, in data set [2] (1% PVP K-12, basic hydrolysis, FIG. 15), the “Degradation of LLD” value is 100%. Besides, in data set [2] (below pH 4.5), the Total related impurities result is recorded as “negligible total related impurities”. Further, the Hydrolytic degradation mitigated in data set [2] (setting [6]) was above 90%. Also, in data set [2] (setting [6]), the Oxidation mitigated was around 100%. For the same compound, the “Loss of LLD” value is listed as 100% in data set [2] (presence of ACN, basic hydrolysis, FIG. 8) and 100% in data set [2] (presence of IPA, basic hydrolysis, FIG. 7). In data set [3], the “Interaction with sodium metabisulfite as an antioxidant” value is given as “direct interaction with lenalidomide”. For the same compound, the “Solubility of the LLD in solution” value in data set [4] is below 400 µg/mL. The “Total Related Substances by peak area” value in data set [5] (T0 upon preparation in standard solutions or formulations) was above 1.5%. Also, the “Total Related Substances” value in data set [5] (after 48 hours at ICH storage conditions) was above 2.5%; in data set [5] (after 48 hours, higher pH ranges such as pH 7.0 PBS), above 10%.
